The numbers were not newly measured in PubChem BioAssay AID1259409 (Chemical Carcinogenesis Research Information System (CCRIS), 2018), which cites them from elsewhere.

The subject of this data set is rodent chemically induced tumor inhibition, incidence and multiplicity. The data set is described as follows: CCRIS tumor inhibitor studies.

With `CC(C)C[C@H]1C(=O)N2CCC[C@H]2[C@]2(O)O[C@](NC(=O)[C@@H]3C=C4c5cccc6[nH]c(Br)c(c56)C[C@H]4N(C)C3)(C(C)C)C(=O)N12`, the “tumour outcome (control, treated, inhibition, significance)” value reads like this: (Carcinogen: 7,12-DIMETHYLBENZ[A]ANTHRACENE, 57-97-6, Dose [Inhibitor]: 0.4 MG/D FROM 90 TO 150 D OF AGE BEGINNING 30 D POST CARCINOGEN TREATMENT (STUDY DURATION: 9 MO AFTER DMBA TREATMENT), Route [Inhibitor]: SUBCUTANEOUS, Species: RAT, Strain/Sex: LONG-EVANS/FEMALE, Target Tissue: Type of Lesion: MAMMARY GLAND: CARCINOMA, Dose [Carcinogen]: 20 MG ONCE AT 60 D OF AGE, Promoter: NONE USED) 20%, 38%, -90%, not significant; (Carcinogen: 7,12-DIMETHYLBENZ[A]ANTHRACENE, 57-97-6, Dose [Inhibitor]: 0.4 MG/D FROM 90 TO 150 D OF AGE BEGINNING 30 D POST CARCINOGEN TREATMENT (STUDY DURATION: 9 MO AFTER DMBA TREATMENT), Route [Inhibitor]: SUBCUTANEOUS, Species: RAT, Strain/Sex: LONG-EVANS/FEMALE, Target Tissue: Type of Lesion: MAMMARY GLAND: FIBROADENOMA, Dose [Carcinogen]: 20 MG ONCE AT 60 D OF AGE, Promoter: NONE USED) 16%, 0%, 100%, not significant; (Carcinogen: 7,12-DIMETHYLBENZ[A]ANTHRACENE, 57-97-6, Dose [Inhibitor]: 0.4 MG/D FROM 90 TO 150 D OF AGE BEGINNING 30 D POST CARCINOGEN TREATMENT (STUDY DURATION: 9 MO AFTER DMBA TREATMENT), Route [Inhibitor]: SUBCUTANEOUS, Species: RAT, Strain/Sex: SPRAGUE-DAWLEY/FEMALE, Target Tissue: Type of Lesion: MAMMARY GLAND: CARCINOMA, Dose [Carcinogen]: 5 MG ONCE AT 60 D OF AGE, Promoter: NONE USED) 85%, 52%, 39%, p<0.05; (Carcinogen: 7,12-DIMETHYLBENZ[A]ANTHRACENE, 57-97-6, Dose [Inhibitor]: 0.4 MG/D FROM 90 TO 150 D OF AGE BEGINNING 30 D POST CARCINOGEN TREATMENT (STUDY DURATION: 9 MO AFTER DMBA TREATMENT), Route [Inhibitor]: SUBCUTANEOUS, Species: RAT, Strain/Sex: SPRAGUE-DAWLEY/FEMALE, Target Tissue: Type of Lesion: MAMMARY GLAND: FIBROADENOMA, Dose [Carcinogen]: 5 MG ONCE AT 60 D OF AGE, Promoter: NONE USED) 22%, 10%, 54%, not significant; (Carcinogen: 7,12-DIMETHYLBENZ[A]ANTHRACENE, 57-97-6, Dose [Inhibitor]: 0.4 MG/D FROM 90 TO 150 D OF AGE BEGINNING 30 D POST CARCINOGEN TREATMENT (STUDY DURATION: 12 MO AFTER DMBA TREATMENT), Route [Inhibitor]: SUBCUTANEOUS, Species: RAT, Strain/Sex: SPRAGUE-DAWLEY/FEMALE, Target Tissue: Type of Lesion: MAMMARY GLAND: CARCINOMA, Dose [Carcinogen]: 1.25 MG ONCE AT 60 D OF AGE, Promoter: NONE USED) 15%, 10%, 33%, not significant; (Carcinogen: 7,12-DIMETHYLBENZ[A]ANTHRACENE, 57-97-6, Dose [Inhibitor]: 0.4 MG/D FROM 90 TO 150 D OF AGE BEGINNING 30 D POST CARCINOGEN TREATMENT (STUDY DURATION: 12 MO AFTER DMBA TREATMENT), Route [Inhibitor]: SUBCUTANEOUS, Species: RAT, Strain/Sex: SPRAGUE-DAWLEY/FEMALE, Target Tissue: Type of Lesion: MAMMARY GLAND: FIBROADENOMA, Dose [Carcinogen]: 1.25 MG ONCE AT 60 D OF AGE, Promoter: NONE USED) 73%, 65%, 11%, not significant. The “tumour outcome (control, treated, inhibition, significance)” value runs as follows: (Carcinogen: 7,12-DIMETHYLBENZ[A]ANTHRACENE, 57-97-6, Dose [Inhibitor]: 0.4 MG/D FROM 90 TO 150 D OF AGE BEGINNING POST CARCINOGEN TREATMENT (STUDY DURATION: 6 MO AFTER DMBA TREATMENT), Route [Inhibitor]: SUBCUTANEOUS, Species: RAT, Strain/Sex: SPRAGUE-DAWLEY/FEMALE, Target Tissue: Type of Lesion: MAMMARY GLAND: CARCINOMA, Dose [Carcinogen]: 20 MG ONCE AT 60 D OF AGE, Promoter: NONE USED) 96%, 87%, 9%, p<0.05; (Carcinogen: 7,12-DIMETHYLBENZ[A]ANTHRACENE, 57-97-6, Dose [Inhibitor]: 0.4 MG/D FROM 93 TO 160 D OF AGE BEGINNING 30 D POST CARCINOGEN TREATMENT (STUDY DURATION: 9 MO AFTER DMBA TREATMENT), Route [Inhibitor]: SUBCUTANEOUS, Species: RAT, Strain/Sex: LEWIS/FEMALE, Target Tissue: Type of Lesion: MAMMARY GLAND: CARCINOMA, Dose [Carcinogen]: 10 MG AT 56 AND 63 D OF AGE, Promoter: NONE USED) 94%, 55%, 41%, p<0.05; (Carcinogen: 7,12-DIMETHYLBENZ[A]ANTHRACENE, 57-97-6, Dose [Inhibitor]: 6 MG/KG 6/WK FOR 80 OR 100 D BEGINNING 1 D POST CARCINOGEN DOSE (STUDY DURATION: 245 D), Route [Inhibitor]: INTRAPERITONEAL, Species: RAT, Strain/Sex: CFE/FEMALE, Target Tissue: Type of Lesion: MAMMARY GLAND: NOT SPECIFIED, Dose [Carcinogen]: 2.5 MG 1/D FOR 2 D, Promoter: NONE USED) 17/18 (94%), 16/19 (84%), 11%, not significant; (Carcinogen: 17-BETA-ESTRADIOL, 50-28-2, Dose [Inhibitor]: 0.1 MG, DAILY WITH CARCINOGEN AT 1 MO OF AGE FOR 22 MO (STUDY DURATION: 22 MO), Route [Inhibitor]: SUBCUTANEOUS, Species: MOUSE, Strain/Sex: C3H/FEMALE, Target Tissue: Type of Lesion: MAMMARY GLAND: TUMOR, Dose [Carcinogen]: 0.5 MG/L IN DRINKING WATER DAILY CONCURRENTLY WITH INHIBITOR FOR 22 MO, Promoter: NONE USED) 27/99 (27%), 9/100 (9%), 67%, p<0.05; (Carcinogen: 17BETA-ESTRADIOL, 50-28-2, Dose [Inhibitor]: 0.1 MG 1/D FOR 19 MO BEGINNING CONCURRENTLY WITH CARCINOGEN DOSE (STUDY DURATION: 19 MO), Route [Inhibitor]: SUBCUTANEOUS, Species: MOUSE, Strain/Sex: C3H/FEMALE, Target Tissue: Type of Lesion: MAMMARY GLAND: CARCINOMA, Dose [Carcinogen]: 0.5 MG/L IN DRINKING WATER BEGINNING AT 30 D OF AGE FOR 19 MO, Promoter: NONE USED) 27/99 (27%), 9/100 (9%), 67%, p<0.001; (Carcinogen: AZOXYMETHANE, 25843-45-2, Dose [Inhibitor]: 0, 2 MG/KG BW SUSPENDED IN 1 ML/MG OLIVE OIL 1/2 D FOR STUDY DURATION (STUDY DURATION: 30 WK), Route [Inhibitor]: SUBCUTANEOUS, Species: RAT, Strain/Sex: WISTAR/MALE, Target Tissue: Type of Lesion: COLON: TUMOR, Dose [Carcinogen]: 7.4 MG/KG IN 0.9% NACL 1/WK FOR 10 WK) 9/17 (53%), 8/20 (40%), 25%, not significant. The “tumour outcome (control, treated, inhibition, significance)” value (Carcinogen: DIETHYLSTILBESTROL, 56-53-1, Dose [Inhibitor]: 0.5 MG 5/WK FOR 9 MO CONCURRENTLY WITH CARCINOGEN DOSE (90 MG TOTAL DOSE) (STUDY DURATION: 9 MO), Route [Inhibitor]: SUBCUTANEOUS, Species: HAMSTER, Strain/Sex: SYRIAN/MALE, Target Tissue: Type of Lesion: KIDNEY: EPITHELIAL NEOPLASM, Dose [Carcinogen]: 0.6 MG 3/WK FOR 9 MO (65 MG TOTAL DOSE), Promoter: NONE USED) was 10/12 (83%), 7/12 (58%), 30%, not calculated and the “tumour outcome (control, treated, inhibition, significance)” value (Carcinogen: DIMETHYLBENZ[A]ANTHRACENE, 57-97-6, Dose [Inhibitor]: 1 MG ONCE ON D 2 OF DIESTRUS AND ONCE AT PROESTRUS (STUDY DURATION: 26 WK), Route [Inhibitor]: INTRAPERITONEAL, Species: RAT, Strain/Sex: SPRAGUE-DAWLEY/FEMALE, Target Tissue: Type of Lesion: MAMMARY GLAND: NOT SPECIFIED, Dose [Carcinogen]: 5 MG ONCE AT 50 D OF AGE 30 HR POST 1ST AGENT DOSE, Promoter: NONE USED) is on record as 97%, 84%, 13%, not significant.
